The values below come from patent US20060110781A1, “Cholesterol detection reagent” (RIKEN, priority 2002, published 2006).

This assay deals with NPC fibroblasts. Description: Fate of cell surface fPEG-Chol, incorporation into meshwork structure. As to conditions: for incorporation of fPEG-Chol into meshwork: inhibitor 5 μg/ml before 1 μM fPEG-Chol.

As for `C[C@H]1CCC/C=C/[C@@H]2C[C@H](O)C[C@H]2[C@H](O)/C=C/C(=O)O1` [Brefeldin A], the “incorporation of fPEG-Chol into meshwork” value is recorded as “did not significantly affect”. Consider `C=C1[C@@H](C)[C@H]2[C@H](Cc3ccccc3)NC(=O)[C@]23OC(=O)/C=C/[C@H](O)CCC[C@@H](C)C/C=C/[C@H]3[C@@H]1O` [cytochalasin B], for which the “incorporation of fPEG-Chol into meshwork” value is “meshwork structure was disappeared”. For the same compound, the “internalization of rhodamine dextran” value (5 μg/ml, 30 minutes, 1 mg/ml rhodamine dextran) is reported as “did not affect”. As for `COC(=O)Nc1nc2ccc(C(=O)c3cccs3)cc2[nH]1` [nocodazole], the “incorporation of fPEG-Chol into meshwork” value is “did not significantly affect”.
